Assay results from patent EP4786454A1, “HETEROARYL DERIVATIVE AND USE THEREOF” (priority 2023, dated 2025).

Assays:
[1] = Kinetic solubility in 50 mM phosphate buffer, LC-UV; assay type: physicochemical; settings: room temperature, 24 hours
Method: The purpose of this assay was to determine the kinetic solubility of the compounds after incubation at room temperature in a 50 mM phosphate buffer solution with a pH of 2.0, 6.5, and 7.4 for 24 hours using a direct ultraviolet method.
10 µL of DMSO stock solutions of a test compound and control compound were added to a 96-well plate. 490 µL of the test medium was added to the 96-well plate, respectively. The plate was sealed, and vortexed for 2 minutes. The incubation concentration of a sample was 200 µM, wherein, DMSO accounted for 2%. The 96-well plate was placed on a shaker, and incubated at room temperature and 800 rpm for 24 hours to reach dissolution equilibrium. After the incubation, the sample was put into a centrifuge, and centrifuged at 25 °C and 4000 rpm for 10 minutes. The supernatant from the centrifuged sample was transferred to a filter plate, centrifuged at 4000 rpm for 5 minutes, and filtered to give filtrate. The concentration of the filtrate was analyzed using linear quantitative analysis with LC-UV (the sample was diluted as needed).
Data of the assay were acquired and processed using Empower software. Linear regression analysis was performed by plotting the relationship between the peak area and their concentrations in µM.

[2] = Stability in liver microsomes (dog); assay type: in vitro ADME, beagle dogs; settings: d (beagle dog liver microsomes), 0.5 mg/mL, read-out: MMS Clint
Method: (§1) The purpose of this study was to evaluate the phase I metabolic stability of the assay sample in liver microsomes from CD-1 mice, Sprague-Dawley (SD) rats, beagle dogs, cynomolgus monkeys, and human.
(§2) The animal and human liver microsomes used in this assay system were purchased from Xenotech, Corning, or other qualified suppliers.
(§3) Preparation of buffer: 73.21 g of potassium phosphate dibasic trihydrate and 10.78 g of potassium dihydrogen phosphate were dissolved in 4000 mL of ultrapure water. The pH of the solution was adjusted to the range of 7.40 ± 0.10 using 10.0% phosphoric acid or 1.00 M potassium hydroxide. Its final concentration was 100 mM.
(§4) Preparation of working solutions: An assay sample powder was prepared into a 10.0 mM stock solution with DMSO, and then further diluted with a suitable organic solvent. The control compounds testosterone, diclofenac, and propafenone were prepared into 10.0 mM stock solutions using DMSO, and then further diluted with a suitable organic solvent.
(§5) Preparation of liver microsome solution: Microsomes of various species were diluted with 100 mM potassium phosphate buffer to a working solution of 0.56 mg/mL. The final concentration of microsomes in the reaction system was 0.500 mg/mL. Detailed preparation procedures were described in the experimental records.
(§6) Preparation of reduced nicotinamide adenine dinucleotide phosphate (NADPH) solution: An appropriate amount of reduced nicotinamide adenine dinucleotide phosphate was dissolved in magnesium chloride solution, and the mixture was shaken to mix well. The final concentrations in the reaction system were 1.00 mM NADPH and 1.00 mM magnesium chloride, respectively. Detailed preparation procedures were described in the experimental records.
(§7) Preparation of stop solution: The stop solution was prepared using acetonitrile containing internal standards (tolbutamide and labetalol). The prepared stop solution was stored at 2.0 to 8.0 °C in a refrigerator. Detailed preparation procedures were described in the experimental records. […]

[3] = Stability in liver microsomes (mouse); assay type: in vitro ADME, CD-1 mice; settings: m (CD-1 mouse liver microsomes), 0.5 mg/mL, read-out: MMS Clint
Method: as §1, §2, §3, §4, §5, §6, §7

Compound	KSY ([1]; pH 2.0, 50 mM phosphate buffer)	KSY ([1]; pH 6.5, 50 mM phosphate buffer)	KSY ([1]; pH 7.4, 50 mM phosphate buffer)	CLint scaled at 1 µM [2]	CLint scaled at 1 µM [3]
CC(C)(C)CC(=O)Nc1nc2c(C(F)(F)F)cc(C#N)cn2c1C12CC(C1)C2 [Compound 6]	21.7 µg/mL	20.9 µg/mL	21.4 µg/mL	–	–
CC(C)(C)CC(=O)Nc1nc2c(F)cc(C#N)cn2c1C12CC(C1)C2 [Compound 5]	4.46 µg/mL	4.57 µg/mL	4.79 µg/mL	< 13.8 mL/min/kg	< 38 mL/min/kg
CC(C)(C)CC(=O)Nc1nc2c(F)cc(C#N)cn2c1C1=CCCC1 [Compound 3]	3.78 µg/mL	3.68 µg/mL	4.43 µg/mL	< 14 mL/min/kg	103 mL/min/kg
CC(C)(C)CC(=O)Nc1nc2c(F)cc(C#N)cn2c1-c1ccc(OC(F)(F)F)cc1 [Compound 1]	–	–	–	16 mL/min/kg	220 mL/min/kg
